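Test compounds were applied to cells in 96-well plates for 48 hours at 5 doses. TGI: total growth inhibition.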
Tested on: BT-549 breast
Assay: NCI-60 cell line screen, 48 h

COC(=O)c1cc(/C=C\c2cc(OC)ccc2OC)ccc1OC and Cc1ccc(/C=C2/N=C(N/N=C\c3ccccc3)NC2=O)cc1 cannot be ordered by TGI: > 100 µM for the first, > 100 µM for the second.

Cc1ccc(S(=NS(=O)(=O)c2ccc(C)cc2)c2ccc(C)cc2)cc1 and NN/C(=N\S(=O)(=O)c1ccc(S(=O)(=O)c2ccccc2)s1)Nc1ccc(Cl)cc1 cannot be ordered by TGI: > 100 µM for the first, > 100 µM for the second.

Going from CC(NC(=O)C(Cc1ccc(OC(=O)c2ccccc2)cc1)NC(=O)OC(C)(C)C)C(=O)NCC(=O)NC(Cc1ccccc1)C(=O)NN (stereo not given) to CC(=O)NC1C(OCc2ccccc2)OC(CO)C(O)C1OCC(=O)N[C@@H](C)C(=O)N[C@H](CCC(=O)NCCCNc1ccc([N+](=O)[O-])c2[nH]c3ccccc3c(=O)c12)C(N)=O (stereo not given in full), the TGI falls from > 100 µM to 96.9 µM.

Compared with O=C1c2cc([N+](=O)[O-])sc2C(=O)c2c([N+](=O)[O-])csc21, O=C1N(c2ccccc2)C(=S)/C(=C/c2ccc(Cl)cc2)N1c1ccc(Cl)cc1 is higher in TGI: 1.93 µM for the first, > 100 µM for the second.

With Clc1cc2nnn(C3CCCO3)c2cc1Cl (stereo not given) the TGI was > 100 µM.

Tested on: SF-268 CNS
Assay: NCI-60 cell line screen, 48 h

Compared with O=c1[nH]c2ccc([N+](=O)[O-])cc2nc1/C=C(\O)c1ccccc1, Cc1ccc(/C=C2/N=C(N/N=C\c3ccccc3)NC2=O)cc1 is higher in TGI: 58.3 µM for the first, > 100 µM for the second.

O=C1CC(c2ccccc2)S(=O)c2ccccc2N1 (stereo not given) and O=C1N(c2ccccc2)C(=S)/C(=C/c2ccc(Cl)cc2)N1c1ccc(Cl)cc1 cannot be ordered by TGI: > 100 µM for the first, > 100 µM for the second.

Compared with COCCN1C(=O)C2c3[nH]c4ccccc4c3C3CCC(C(C)(C)C)CC3C2C1=O (stereo not given), COC(=O)c1cc(/C=C\c2cc(OC)ccc2OC)ccc1OC is higher in TGI: 37.6 µM for the first, > 100 µM for the second.

COC(=O)C(NC(=O)OC(C)(C)C)P(=O)(OC)OC (stereo not given) and CC(NC(=O)C(Cc1ccc(OC(=O)c2ccccc2)cc1)NC(=O)OC(C)(C)C)C(=O)NCC(=O)NC(Cc1ccccc1)C(=O)NN (stereo not given) cannot be ordered by TGI: > 100 µM for the first, > 100 µM for the second.

Going from Cc1ccc(S(=NS(=O)(=O)c2ccc(C)cc2)c2ccc(C)cc2)cc1 to O=C1c2cc([N+](=O)[O-])sc2C(=O)c2c([N+](=O)[O-])csc21, the TGI falls from > 100 µM to 0.994 µM.

In the case of Clc1cc2nnn(C3CCCO3)c2cc1Cl (stereo not given), the TGI is reported as > 100 µM.

Tested on: SNB-19 CNS
Assay: NCI-60 cell line screen, 48 h

First: O=c1[nH]c2ccc([N+](=O)[O-])cc2nc1/C=C(\O)c1ccccc1
Second: Cc1ccc(/C=C2/N=C(N/N=C\c3ccccc3)NC2=O)cc1
The TGI of the first is 2.8-fold lower: 31.8 µM for the first, 90.5 µM for the second.

O=C1CC(c2ccccc2)S(=O)c2ccccc2N1 (stereo not given) and NN/C(=N\S(=O)(=O)c1ccc(S(=O)(=O)c2ccccc2)s1)Nc1ccc(Cl)cc1 cannot be ordered by TGI: > 100 µM for the first, > 100 µM for the second.

Going from COCCN1C(=O)C2c3[nH]c4ccccc4c3C3CCC(C(C)(C)C)CC3C2C1=O (stereo not given) to CC(=O)NC1C(OCc2ccccc2)OC(CO)C(O)C1OCC(=O)N[C@@H](C)C(=O)N[C@H](CCC(=O)NCCCNc1ccc([N+](=O)[O-])c2[nH]c3ccccc3c(=O)c12)C(N)=O (stereo not given in full), the TGI rises from 44.6 µM to > 100 µM.

COC(=O)C(NC(=O)OC(C)(C)C)P(=O)(OC)OC (stereo not given) and CC(NC(=O)C(Cc1ccc(OC(=O)c2ccccc2)cc1)NC(=O)OC(C)(C)C)C(=O)NCC(=O)NC(Cc1ccccc1)C(=O)NN (stereo not given) cannot be ordered by TGI: > 100 µM for the first, > 100 µM for the second.

COC(=O)c1cc(/C=C\c2cc(OC)ccc2OC)ccc1OC and Cc1ccc(S(=NS(=O)(=O)c2ccc(C)cc2)c2ccc(C)cc2)cc1 cannot be ordered by TGI: > 100 µM for the first, > 100 µM for the second.

First: O=C1c2cc([N+](=O)[O-])sc2C(=O)c2c([N+](=O)[O-])csc21
Second: O=C1N(c2ccccc2)C(=S)/C(=C/c2ccc(Cl)cc2)N1c1ccc(Cl)cc1
The TGI of the first is lower: 3.02 µM for the first, > 100 µM for the second.

Tested on: HCT-116 colon
Assay: NCI-60 cell line screen, 48 h

O=c1[nH]c2ccc([N+](=O)[O-])cc2nc1/C=C(\O)c1ccccc1 and Cc1ccc(/C=C2/N=C(N/N=C\c3ccccc3)NC2=O)cc1 cannot be ordered by TGI: > 100 µM for the first, > 100 µM for the second.

Going from O=C1CC(c2ccccc2)S(=O)c2ccccc2N1 (stereo not given) to NN/C(=N\S(=O)(=O)c1ccc(S(=O)(=O)c2ccccc2)s1)Nc1ccc(Cl)cc1, the TGI falls from > 100 µM to 32.5 µM.

Going from COCCN1C(=O)C2c3[nH]c4ccccc4c3C3CCC(C(C)(C)C)CC3C2C1=O (stereo not given) to CC(=O)NC1C(OCc2ccccc2)OC(CO)C(O)C1OCC(=O)N[C@@H](C)C(=O)N[C@H](CCC(=O)NCCCNc1ccc([N+](=O)[O-])c2[nH]c3ccccc3c(=O)c12)C(N)=O (stereo not given in full), the TGI rises from 29.9 µM to > 100 µM.

COC(=O)C(NC(=O)OC(C)(C)C)P(=O)(OC)OC (stereo not given) and CC(NC(=O)C(Cc1ccc(OC(=O)c2ccccc2)cc1)NC(=O)OC(C)(C)C)C(=O)NCC(=O)NC(Cc1ccccc1)C(=O)NN (stereo not given) cannot be ordered by TGI: > 100 µM for the first, > 100 µM for the second.

COC(=O)c1cc(/C=C\c2cc(OC)ccc2OC)ccc1OC and Cc1ccc(S(=NS(=O)(=O)c2ccc(C)cc2)c2ccc(C)cc2)cc1 cannot be ordered by TGI: > 100 µM for the first, > 100 µM for the second.

First: O=C1c2cc([N+](=O)[O-])sc2C(=O)c2c([N+](=O)[O-])csc21
Second: O=C1N(c2ccccc2)C(=S)/C(=C/c2ccc(Cl)cc2)N1c1ccc(Cl)cc1
The TGI of the first is lower: 1.78 µM for the first, > 100 µM for the second.

With Clc1cc2nnn(C3CCCO3)c2cc1Cl (stereo not given) the TGI was > 100 µM.

Tested on: M14 melanoma
Assay: NCI-60 cell line screen, 48 h

Compared with O=c1[nH]c2ccc([N+](=O)[O-])cc2nc1/C=C(\O)c1ccccc1, Cc1ccc(/C=C2/N=C(N/N=C\c3ccccc3)NC2=O)cc1 is lower in TGI: > 100 µM for the first, 85.7 µM for the second.

First: O=C1CC(c2ccccc2)S(=O)c2ccccc2N1 (stereo not given)
Second: NN/C(=N\S(=O)(=O)c1ccc(S(=O)(=O)c2ccccc2)s1)Nc1ccc(Cl)cc1
The TGI of the first is higher: > 100 µM for the first, 40.1 µM for the second.

Going from COCCN1C(=O)C2c3[nH]c4ccccc4c3C3CCC(C(C)(C)C)CC3C2C1=O (stereo not given) to CC(=O)NC1C(OCc2ccccc2)OC(CO)C(O)C1OCC(=O)N[C@@H](C)C(=O)N[C@H](CCC(=O)NCCCNc1ccc([N+](=O)[O-])c2[nH]c3ccccc3c(=O)c12)C(N)=O (stereo not given in full), the TGI rises from 38.1 µM to > 100 µM.

COC(=O)C(NC(=O)OC(C)(C)C)P(=O)(OC)OC (stereo not given) and CC(NC(=O)C(Cc1ccc(OC(=O)c2ccccc2)cc1)NC(=O)OC(C)(C)C)C(=O)NCC(=O)NC(Cc1ccccc1)C(=O)NN (stereo not given) cannot be ordered by TGI: > 100 µM for the first, > 100 µM for the second.

First: COC(=O)c1cc(/C=C\c2cc(OC)ccc2OC)ccc1OC
Second: Cc1ccc(S(=NS(=O)(=O)c2ccc(C)cc2)c2ccc(C)cc2)cc1
The TGI of the first is lower: 84.2 µM for the first, > 100 µM for the second.

Compared with O=C1c2cc([N+](=O)[O-])sc2C(=O)c2c([N+](=O)[O-])csc21, O=C1N(c2ccccc2)C(=S)/C(=C/c2ccc(Cl)cc2)N1c1ccc(Cl)cc1 is higher in TGI: 1.26 µM for the first, > 100 µM for the second.

With Clc1cc2nnn(C3CCCO3)c2cc1Cl (stereo not given) the TGI was > 100 µM.

Tested on: NCI/ADR-RES ovarian
Assay: NCI-60 cell line screen, 48 h

Compared with O=c1[nH]c2ccc([N+](=O)[O-])cc2nc1/C=C(\O)c1ccccc1, Cc1ccc(/C=C2/N=C(N/N=C\c3ccccc3)NC2=O)cc1 is higher in TGI: 81.5 µM for the first, > 100 µM for the second.

O=C1CC(c2ccccc2)S(=O)c2ccccc2N1 (stereo not given) and NN/C(=N\S(=O)(=O)c1ccc(S(=O)(=O)c2ccccc2)s1)Nc1ccc(Cl)cc1 cannot be ordered by TGI: > 100 µM for the first, > 100 µM for the second.

First: COCCN1C(=O)C2c3[nH]c4ccccc4c3C3CCC(C(C)(C)C)CC3C2C1=O (stereo not given)
Second: CC(=O)NC1C(OCc2ccccc2)OC(CO)C(O)C1OCC(=O)N[C@@H](C)C(=O)N[C@H](CCC(=O)NCCCNc1ccc([N+](=O)[O-])c2[nH]c3ccccc3c(=O)c12)C(N)=O (stereo not given in full)
The TGI of the first is lower: 42.6 µM for the first, > 100 µM for the second.

COC(=O)C(NC(=O)OC(C)(C)C)P(=O)(OC)OC (stereo not given) and CC(NC(=O)C(Cc1ccc(OC(=O)c2ccccc2)cc1)NC(=O)OC(C)(C)C)C(=O)NCC(=O)NC(Cc1ccccc1)C(=O)NN (stereo not given) cannot be ordered by TGI: > 100 µM for the first, > 100 µM for the second.

COC(=O)c1cc(/C=C\c2cc(OC)ccc2OC)ccc1OC and Cc1ccc(S(=NS(=O)(=O)c2ccc(C)cc2)c2ccc(C)cc2)cc1 cannot be ordered by TGI: > 100 µM for the first, > 100 µM for the second.

Going from O=C1c2cc([N+](=O)[O-])sc2C(=O)c2c([N+](=O)[O-])csc21 to O=C1N(c2ccccc2)C(=S)/C(=C/c2ccc(Cl)cc2)N1c1ccc(Cl)cc1, the TGI rises from 4.16 µM to > 100 µM.

With Clc1cc2nnn(C3CCCO3)c2cc1Cl (stereo not given) the TGI was > 100 µM.

Tested on: HCC-2998 colon
Assay: NCI-60 cell line screen, 48 h

Compared with O=c1[nH]c2ccc([N+](=O)[O-])cc2nc1/C=C(\O)c1ccccc1, Cc1ccc(/C=C2/N=C(N/N=C\c3ccccc3)NC2=O)cc1 is lower in TGI: > 100 µM for the first, 72.1 µM for the second.

First: COCCN1C(=O)C2c3[nH]c4ccccc4c3C3CCC(C(C)(C)C)CC3C2C1=O (stereo not given)
Second: CC(=O)NC1C(OCc2ccccc2)OC(CO)C(O)C1OCC(=O)N[C@@H](C)C(=O)N[C@H](CCC(=O)NCCCNc1ccc([N+](=O)[O-])c2[nH]c3ccccc3c(=O)c12)C(N)=O (stereo not given in full)
The TGI of the first is lower: 42.9 µM for the first, > 100 µM for the second.

First: COC(=O)c1cc(/C=C\c2cc(OC)ccc2OC)ccc1OC
Second: O=C1N(c2ccccc2)C(=S)/C(=C/c2ccc(Cl)cc2)N1c1ccc(Cl)cc1
The TGI of the first is lower: 45.7 µM for the first, > 100 µM for the second.

First: O=C1c2cc([N+](=O)[O-])sc2C(=O)c2c([N+](=O)[O-])csc21
Second: Clc1cc2nnn(C3CCCO3)c2cc1Cl (stereo not given)
The TGI of the first is lower: 2.3 µM for the first, > 100 µM for the second.

Tested on: OVCAR-4 ovarian
Assay: NCI-60 cell line screen, 48 h

First: O=c1[nH]c2ccc([N+](=O)[O-])cc2nc1/C=C(\O)c1ccccc1
Second: Cc1ccc(/C=C2/N=C(N/N=C\c3ccccc3)NC2=O)cc1
The TGI of the first is 6.2-fold lower: 8.87 µM for the first, 55.1 µM for the second.

O=C1CC(c2ccccc2)S(=O)c2ccccc2N1 (stereo not given) and NN/C(=N\S(=O)(=O)c1ccc(S(=O)(=O)c2ccccc2)s1)Nc1ccc(Cl)cc1 cannot be ordered by TGI: > 100 µM for the first, > 100 µM for the second.

First: COCCN1C(=O)C2c3[nH]c4ccccc4c3C3CCC(C(C)(C)C)CC3C2C1=O (stereo not given)
Second: CC(=O)NC1C(OCc2ccccc2)OC(CO)C(O)C1OCC(=O)N[C@@H](C)C(=O)N[C@H](CCC(=O)NCCCNc1ccc([N+](=O)[O-])c2[nH]c3ccccc3c(=O)c12)C(N)=O (stereo not given in full)
The TGI of the first is 2.6-fold lower: 36.8 µM for the first, 94.8 µM for the second.

COC(=O)C(NC(=O)OC(C)(C)C)P(=O)(OC)OC (stereo not given) and CC(NC(=O)C(Cc1ccc(OC(=O)c2ccccc2)cc1)NC(=O)OC(C)(C)C)C(=O)NCC(=O)NC(Cc1ccccc1)C(=O)NN (stereo not given) cannot be ordered by TGI: > 100 µM for the first, > 100 µM for the second.

COC(=O)c1cc(/C=C\c2cc(OC)ccc2OC)ccc1OC and O=C1N(c2ccccc2)C(=S)/C(=C/c2ccc(Cl)cc2)N1c1ccc(Cl)cc1 cannot be ordered by TGI: > 100 µM for the first, > 100 µM for the second.

O=C1c2cc([N+](=O)[O-])sc2C(=O)c2c([N+](=O)[O-])csc21 showed a TGI of 2.06 µM.

Reference: PubChem BioAssay (NCI)
